What was measured:
Format in all cases: functional
[1] = tested on: NCI/ADR-RES; experiment: Cytotoxicity against human NCI/ADR-RES cells assessed as growth inhibition after 48 hrs by sulforhodamine B assay
[2] = tested on: SK-OV-3; experiment: Cytotoxicity against human SKOV3 cells assessed as cell growth at 0.01 uM after 48 hrs by sulforhodamine B assay relative to control; conditions: SK-OV-3, 48 h, read-out: Activity
[3] = tested on: UACC-62; experiment: Cytotoxicity against human UACC62 cells assessed as growth inhibition after 48 hrs by sulforhodamine B assay; conditions: UACC-62, 48 h
[4] = tested on: SF-268; experiment: Cytotoxicity against human SF268 cells assessed as cell growth at 10 uM after 48 hrs by sulforhodamine B assay relative to control; conditions: SF-268, 48 h, read-out: Activity
[5] = tested on: Malme-3M; experiment: Cytotoxicity against human MALME-3M cells assessed as cell growth at 0.1 uM after 48 hrs by sulforhodamine B assay relative to control; conditions: read-out: Activity
[6] = tested on: NCI-H460; experiment: Cytotoxicity against human NCI-H460 cells assessed as cell growth at 1 uM after 48 hrs by sulforhodamine B assay relative to control; conditions: NCI-H460, 48 h, read-out: Activity
[7] = tested on: SF-539; experiment: Cytotoxicity against human SF539 cells assessed as cell growth at 0.01 uM after 48 hrs by sulforhodamine B assay relative to control; conditions: SF-539, 48 h, read-out: Activity
[8] = tested on: T47D; experiment: Cytotoxicity against human T47D cells assessed as cell growth at 0.1 uM after 48 hrs by sulforhodamine B assay relative to control; conditions: read-out: Activity
[9] = tested on: HCT-116; experiment: Cytotoxicity against human HCT116 cells assessed as cell growth at 0.1 uM after 48 hrs by sulforhodamine B assay relative to control; conditions: HCT-116, 48 h, read-out: Activity
[10] = tested on: NCI-H522; experiment: Cytotoxicity against human NCI-H522 cells assessed as cell growth at 10 uM after 48 hrs by sulforhodamine B assay relative to control; conditions: NCI-H522, 48 h, read-out: Activity
[11] = tested on: OVCAR-3; experiment: Cytotoxicity against human OVCAR3 cells assessed as cell growth at 1 uM after 48 hrs by sulforhodamine B assay relative to control; conditions: OVCAR-3, 48 h, read-out: Activity
[12] = tested on: SK-MEL-5; experiment: Cytotoxicity against human SK-MEL-5 cells assessed as cell growth at 1 uM after 48 hrs by sulforhodamine B assay relative to control; conditions: SK-MEL-5, 48 h, read-out: Activity
[13] = tested on: MDA-MB-435; experiment: Cytotoxicity against human MDA-MB-435 cells assessed as cell growth at 0.1 uM after 48 hrs by sulforhodamine B assay relative to control; conditions: MDA-MB-435, 48 h, read-out: Activity
[14] = tested on: T47D; experiment: Cytotoxicity against human T47D cells assessed as cell growth at 0.01 uM after 48 hrs by sulforhodamine B assay relative to control; conditions: read-out: Activity
[15] = tested on: DU-145; experiment: Cytotoxicity against human DU145 cells assessed as cell growth at 1 uM after 48 hrs by sulforhodamine B assay relative to control; conditions: DU-145, 48 h, read-out: Activity
[16] = tested on: UO-31; experiment: Cytotoxicity against human UO31 cells assessed as growth inhibition after 48 hrs by sulforhodamine B assay; conditions: UO-31, 48 h
[17] = tested on: M14; experiment: Cytotoxicity against human M14 cells assessed as cell growth at 0.01 uM after 48 hrs by sulforhodamine B assay relative to control; conditions: M14, 48 h, read-out: Activity
[18] = tested on: NCI-H522; experiment: Cytotoxicity against human NCI-H522 cells assessed as cell growth at 0.01 uM after 48 hrs by sulforhodamine B assay relative to control; conditions: NCI-H522, 48 h, read-out: Activity
[19] = tested on: MDA-MB-231; experiment: Cytotoxicity against human MDA-MB-231 cells assessed as cell growth at 0.1 uM after 48 hrs by sulforhodamine B assay relative to control; conditions: MDA-MB-231, 48 h, read-out: Activity
[20] = tested on: U-251; experiment: Cytotoxicity against human U251 cells assessed as growth inhibition after 48 hrs by sulforhodamine B assay; conditions: U-251, 48 h
[21] = tested on: A549; experiment: Cytotoxicity against human A549/ATCC cells assessed as cell growth at 0.01 uM after 48 hrs by sulforhodamine B assay relative to control; conditions: A549, 48 h, read-out: Activity
[22] = tested on: U-251; experiment: Cytotoxicity against human U251 cells assessed as cell growth at 0.1 uM after 48 hrs by sulforhodamine B assay relative to control; conditions: U-251, 48 h, read-out: Activity
[23] = tested on: HCT-15; experiment: Cytotoxicity against human HCT15 cells assessed as growth inhibition after 48 hrs by sulforhodamine B assay; conditions: HCT-15, 48 h
[24] = tested on: A549; experiment: Cytotoxicity against human A549/ATCC cells assessed as growth inhibition after 48 hrs by sulforhodamine B assay; conditions: A549, 48 h
[25] = tested on: T47D; experiment: Cytotoxicity against human T47D cells assessed as growth inhibition after 48 hrs by sulforhodamine B assay
[26] = tested on: KM12; experiment: Cytotoxicity against human KM12 cells assessed as cell growth at 100 uM after 48 hrs by sulforhodamine B assay relative to control; conditions: KM12, 48 h, read-out: Activity
[27] = tested on: SF-539; experiment: Cytotoxicity against human SF539 cells assessed as cell growth at 10 uM after 48 hrs by sulforhodamine B assay relative to control; conditions: SF-539, 48 h, read-out: Activity
[28] = tested on: NCI-H23; experiment: Cytotoxicity against human NCI-H23 cells assessed as cell growth at 1 uM after 48 hrs by sulforhodamine B assay relative to control; conditions: NCI-H23, 48 h, read-out: Activity
[29] = tested on: UACC-62; experiment: Cytotoxicity against human UACC62 cells assessed as cell growth at 0.1 uM after 48 hrs by sulforhodamine B assay relative to control; conditions: UACC-62, 48 h, read-out: Activity
[30] = tested on: MDA-MB-231; experiment: Cytotoxicity against human MDA-MB-231 cells assessed as growth inhibition after 48 hrs by sulforhodamine B assay; conditions: MDA-MB-231, 48 h
[31] = tested on: NCI-H460; experiment: Cytotoxicity against human NCI-H460 cells assessed as cell growth at 100 uM after 48 hrs by sulforhodamine B assay relative to control; conditions: NCI-H460, 48 h, read-out: Activity
[32] = tested on: RXF 393; experiment: Cytotoxicity against human RXF393 cells assessed as growth inhibition after 48 hrs by sulforhodamine B assay; conditions: RXF 393, 48 h
[33] = tested on: A498; experiment: Cytotoxicity against human A498 cells assessed as cell growth at 0.01 uM after 48 hrs by sulforhodamine B assay relative to control; conditions: A498, 48 h, read-out: Activity
[34] = tested on: MDA-MB-468; experiment: Cytotoxicity against human MDA-MB-468 cells assessed as cell growth at 100 uM after 48 hrs by sulforhodamine B assay relative to control; conditions: MDA-MB-468, 48 h, read-out: Activity
[35] = tested on: OVCAR-5; experiment: Cytotoxicity against human OVCAR5 cells assessed as cell growth at 100 uM after 48 hrs by sulforhodamine B assay relative to control; conditions: OVCAR-5, 48 h, read-out: Activity

COc1cc(-c2cc(/C=C/C(=O)c3ccc4c(c3)OCO4)[nH]n2)cc(OC)c1OC
LC50 [1]: > 100 µM
TGI [1]: > 100 µM
growth at 0.01 µM [2]: 103%
LC50 [3]: > 100 µM
TGI [3]: > 100 µM
growth at 10 µM [4]: 5%
growth at 0.1 µM [5]: 91%
growth at 1 µM [6]: 93%
growth at 0.01 µM [7]: 98%
growth at 0.1 µM [8]: 91%
growth at 0.1 µM [9]: 101%
growth at 10 µM [10]: -88%
growth at 1 µM [11]: 102%
growth at 1 µM [12]: 95%
growth at 0.1 µM [13]: 94%
growth at 0.01 µM [14]: 100%
growth at 1 µM [15]: 90%
LC50 [16]: 26.3 µM
TGI [16]: 5.44 µM
growth at 0.01 µM [17]: 97%
growth at 0.01 µM [18]: 87%
growth at 0.1 µM [19]: 103%
LC50 [20]: 59.5 µM
TGI [20]: 5.45 µM
growth at 0.01 µM [21]: 101%
growth at 0.1 µM [22]: 95%
LC50 [23]: > 100 µM
TGI [23]: 7.19 µM
LC50 (concentration giving 50% net cell kill) [24]: > 100 µM
TGI [24]: > 100 µM
LC50 [25]: > 100 µM
TGI [25]: 17 µM
growth at 100 µM [26]: 3%
growth at 10 µM [27]: -27%
growth at 1 µM [28]: 97%
growth at 0.1 µM [29]: 96%
LC50 [30]: > 100 µM
TGI [30]: > 100 µM
growth at 100 µM [31]: -34%
LC50 (concentration killing 50% of cells) [32]: 5.55 µM
TGI [32]: 2.87 µM
growth at 0.01 µM [33]: 89%
growth at 100 µM [34]: -85%

COc1cc(-c2cc(/C=C/C(=O)c3ccc(Cl)c(Cl)c3)[nH]n2)cc(OC)c1OC
LC50 [1]: > 100 µM
TGI [1]: > 100 µM
growth at 0.01 µM [2]: 99%
LC50 [3]: > 100 µM
TGI [3]: > 100 µM
growth at 10 µM [4]: 60%
growth at 100 µM [35]: 16%
growth at 0.1 µM [5]: 95%
growth at 1 µM [6]: 93%
growth at 0.01 µM [7]: 93%
growth at 0.1 µM [8]: 87%
growth at 0.1 µM [9]: 100%
growth at 10 µM [10]: -72%
growth at 1 µM [11]: 102%
growth at 1 µM [12]: 94%
growth at 0.1 µM [13]: 96%
growth at 0.01 µM [14]: 90%
LC50 [16]: > 100 µM
TGI [16]: > 100 µM
growth at 0.01 µM [17]: 98%
growth at 0.01 µM [18]: 92%
growth at 0.1 µM [19]: 102%
LC50 [20]: > 100 µM
TGI [20]: 80.5 µM
growth at 0.01 µM [21]: 101%
growth at 0.1 µM [22]: 95%
LC50 (concentration giving 50% net cell kill) [24]: > 100 µM
TGI [24]: > 100 µM
LC50 [25]: > 100 µM
TGI [25]: 15.7 µM
growth at 100 µM [26]: 3%
growth at 10 µM [27]: 28%
growth at 1 µM [28]: 95%
growth at 0.1 µM [29]: 94%
LC50 [30]: > 100 µM
TGI [30]: > 100 µM
growth at 100 µM [31]: -24%
LC50 (concentration killing 50% of cells) [32]: 54.6 µM
TGI [32]: 12.8 µM
growth at 0.01 µM [33]: 84%
growth at 100 µM [34]: -37%

COc1cc(-c2cc(/C=C/C(=O)c3ccc(F)c(F)c3)[nH]n2)cc(OC)c1OC
LC50 [1]: > 100 µM
TGI [1]: 50.5 µM
growth at 0.01 µM [2]: 98%
LC50 [3]: 35.3 µM
TGI [3]: 7.44 µM
growth at 10 µM [4]: 17%
growth at 100 µM [35]: -24%
growth at 0.1 µM [5]: 90%
growth at 1 µM [6]: 103%
growth at 0.01 µM [7]: 100%
growth at 0.1 µM [8]: 93%
growth at 0.1 µM [9]: 102%
growth at 10 µM [10]: -38%
growth at 1 µM [11]: 95%
growth at 1 µM [12]: 90%
growth at 0.1 µM [13]: 90%
growth at 0.01 µM [14]: 95%
LC50 [16]: > 100 µM
TGI [16]: 14.2 µM
growth at 0.01 µM [17]: 94%
growth at 0.01 µM [18]: 96%
growth at 0.1 µM [19]: 96%
LC50 [20]: > 100 µM
TGI [20]: 15.7 µM
growth at 0.01 µM [21]: 101%
growth at 0.1 µM [22]: 96%
LC50 [23]: > 100 µM
TGI [23]: > 100 µM
LC50 (concentration giving 50% net cell kill) [24]: > 100 µM
TGI [24]: 9.9 µM
LC50 [25]: > 100 µM
TGI [25]: 27 µM
growth at 100 µM [26]: -48%
growth at 10 µM [27]: 21%
growth at 1 µM [28]: 90%
growth at 0.1 µM [29]: 93%
LC50 [30]: > 100 µM
TGI [30]: 4.58 µM
growth at 100 µM [31]: -54%
LC50 (concentration killing 50% of cells) [32]: 54.1 µM
TGI [32]: 6.34 µM
growth at 0.01 µM [33]: 100%
growth at 100 µM [34]: -26%

— ChEMBL document CHEMBL4138123, “Design, synthesis and biological evaluation of novel pyrazolochalcones as potential modulators of PI3K/Akt/mTOR pathway and inducers of apoptosis in breast cancer cells” (Eur J Med Chem, 2017)
